Species: Rattus norvegicus
Test: DrugMatrix - Regimen: Daily Repeat
Format: toxicity, organism-based, Sprague-Dawley
Design: regimen Daily Repeat, gender Male, age 6-8 weeks
Details: in vivo, po, route oral GAVAGE, […]; for ABSOLUTE BASOPHIL / ABSOLUTE EOSINOPHIL / ABSOLUTE LYMPHOCYTE / ABSOLUTE MONOCYTE / ABSOLUTE SEGMENTED NEUTROPHIL / BASOPHIL / EOSINOPHIL / ERYTHROCYTE COUNT / HEMATOCRIT / HEMOGLOBIN / LEUKOCYTE COUNT / LYMPHOCYTE / MEAN CORPUSCULAR HEMOGLOBIN / MEAN CORPUSCULAR HEMOGLOBIN CONCENTRATION / MONOCYTE / NEUTROPHIL / NUCLEATED RED BLOOD CELLS / PLATELET COUNT: tissue Blood; for ALANINE AMINOTRANSFERASE / ALBUMIN / ALKALINE PHOSPHATASE / ASPARTATE AMINOTRANSFERASE / BLOOD UREA NITROGEN / CARBON DIOXIDE / CHLORIDE / CHOLESTEROL / CREATINE PHOSPHOKINASE / CREATININE / GLUCOSE / LACTATE DEHYDROGENASE / LIPASE / PHOSPHORUS / POTASSIUM / SODIUM / TOTAL BILIRUBIN / TOTAL PROTEIN / URIC ACID: tissue Plasma
[1] = 0 mg/kg, 72 h, dose level Control, time 3 day
[2] = 0 mg/kg, 120 h, dose level Control, time 5 day
[3] = 250 mg/kg, 72 h, dose level Low, time 3 day

Cc1noc(NS(=O)(=O)c2ccc(N)cc2)c1C [SULFISOXAZOLE]
ABSOLUTE BASOPHIL [1]: 0 CELLS/uL | ABSOLUTE EOSINOPHIL [1]: 0 CELLS/uL | ABSOLUTE LYMPHOCYTE [1]: 11091.17 CELLS/uL | ABSOLUTE MONOCYTE [1]: 172.17 CELLS/uL | ABSOLUTE SEGMENTED NEUTROPHIL [1]: 1186.67 CELLS/uL | BASOPHIL [1]: 0% | EOSINOPHIL [1]: 0% | ERYTHROCYTE COUNT [1]: 5.87 x10E6/uL | HEMATOCRIT [1]: 36.87% | HEMOGLOBIN [1]: 14.03 G/DL | LEUKOCYTE COUNT [1]: 12.45 x10E3/uL | LYMPHOCYTE [1]: 88.67% | MEAN CORPUSCULAR HEMOGLOBIN [1]: 23.93 pg | MEAN CORPUSCULAR HEMOGLOBIN CONCENTRATION [1]: 38.1 G/DL | MONOCYTE [1]: 1.5% | NEUTROPHIL [1]: 9.83% | NUCLEATED RED BLOOD CELLS [1]: 0 /100WBC | PLATELET COUNT [1]: 1150.33 x10E3/uL | ALANINE AMINOTRANSFERASE [1]: 67.17 u/L | ALBUMIN [1]: 4.03 G/DL | ALKALINE PHOSPHATASE [1]: 462.5 u/L | ASPARTATE AMINOTRANSFERASE [1]: 88 u/L | BLOOD UREA NITROGEN [1]: 13.17 mg/dL | CARBON DIOXIDE [1]: 29.33 mmol/L | CHLORIDE [1]: 101 MEQ/L | CHOLESTEROL [1]: 69.17 mg/dL | CREATINE PHOSPHOKINASE [1]: 292.5 u/L | CREATININE [1]: 0.17 mg/dL | GLUCOSE [1]: 167.5 mg/dL | LACTATE DEHYDROGENASE [1]: 198.5 u/L | LIPASE [1]: 10.67 u/L | PHOSPHORUS [1]: 11.73 mg/dL | POTASSIUM [1]: 5.91 MEQ/L | SODIUM [1]: 143.3 MEQ/L | TOTAL BILIRUBIN [1]: 0.18 mg/dL | TOTAL PROTEIN [1]: 5.7 G/DL | URIC ACID [1]: 1.3 mg/dL | ABSOLUTE BASOPHIL [2]: 0 CELLS/uL | ABSOLUTE EOSINOPHIL [2]: 64.33 CELLS/uL | ABSOLUTE LYMPHOCYTE [2]: 12494.67 CELLS/uL | ABSOLUTE MONOCYTE [2]: 117 CELLS/uL | ABSOLUTE SEGMENTED NEUTROPHIL [2]: 1340.67 CELLS/uL | BASOPHIL [2]: 0% | EOSINOPHIL [2]: 0.33% | ERYTHROCYTE COUNT [2]: 5.82 x10E6/uL | HEMATOCRIT [2]: 36.97% | HEMOGLOBIN [2]: 14.18 G/DL | LEUKOCYTE COUNT [2]: 14.02 x10E3/uL | LYMPHOCYTE [2]: 89% | MEAN CORPUSCULAR HEMOGLOBIN [2]: 24.42 pg | MEAN CORPUSCULAR HEMOGLOBIN CONCENTRATION [2]: 38.4 G/DL | MONOCYTE [2]: 0.83% | NEUTROPHIL [2]: 9.83% | NUCLEATED RED BLOOD CELLS [2]: 0 /100WBC | PLATELET COUNT [2]: 1097.83 x10E3/uL | ALANINE AMINOTRANSFERASE [2]: 58.83 u/L | ALBUMIN [2]: 3.92 G/DL | ALKALINE PHOSPHATASE [2]: 414.17 u/L | ASPARTATE AMINOTRANSFERASE [2]: 89.17 u/L | BLOOD UREA NITROGEN [2]: 16.83 mg/dL | CARBON DIOXIDE [2]: 29.17 mmol/L | CHLORIDE [2]: 100.33 MEQ/L | CHOLESTEROL [2]: 54.5 mg/dL | CREATINE PHOSPHOKINASE [2]: 386.17 u/L | CREATININE [2]: 0.23 mg/dL | GLUCOSE [2]: 184.17 mg/dL | LACTATE DEHYDROGENASE [2]: 229.17 u/L | LIPASE [2]: 10.83 u/L | PHOSPHORUS [2]: 10.88 mg/dL | POTASSIUM [2]: 5.97 MEQ/L | SODIUM [2]: 142.2 MEQ/L | TOTAL BILIRUBIN [2]: 0.12 mg/dL | TOTAL PROTEIN [2]: 5.63 G/DL | URIC ACID [2]: 1.55 mg/dL | ABSOLUTE BASOPHIL [3]: 0 CELLS/uL | ABSOLUTE EOSINOPHIL [3]: 53.33 CELLS/uL | ABSOLUTE LYMPHOCYTE [3]: 12619.33 CELLS/uL | ABSOLUTE MONOCYTE [3]: 200.67 CELLS/uL | ABSOLUTE SEGMENTED NEUTROPHIL [3]: 1193.33 CELLS/uL | BASOPHIL [3]: 0% | EOSINOPHIL [3]: 0.33% | ERYTHROCYTE COUNT [3]: 5.71 x10E6/uL | HEMATOCRIT [3]: 36.37% | HEMOGLOBIN [3]: 14.1 G/DL | LEUKOCYTE COUNT [3]: 14.07 x10E3/uL | LYMPHOCYTE [3]: 89.67% | MEAN CORPUSCULAR HEMOGLOBIN [3]: 24.7 pg | MEAN CORPUSCULAR HEMOGLOBIN CONCENTRATION [3]: 38.77 G/DL | MONOCYTE [3]: 1.33% | NEUTROPHIL [3]: 8.67% | NUCLEATED RED BLOOD CELLS [3]: 0 /100WBC | PLATELET COUNT [3]: 1238.67 x10E3/uL | ALANINE AMINOTRANSFERASE [3]: 58.33 u/L | ALBUMIN [3]: 4.03 G/DL | ALKALINE PHOSPHATASE [3]: 426.33 u/L | ASPARTATE AMINOTRANSFERASE [3]: 80.67 u/L | BLOOD UREA NITROGEN [3]: 15 mg/dL | CARBON DIOXIDE [3]: 27.33 mmol/L | CHLORIDE [3]: 102.67 MEQ/L | CHOLESTEROL [3]: 67.67 mg/dL | CREATINE PHOSPHOKINASE [3]: 283.67 u/L | CREATININE [3]: 0.16 mg/dL | GLUCOSE [3]: 171.67 mg/dL | LACTATE DEHYDROGENASE [3]: 137.33 u/L | LIPASE [3]: 9.67 u/L | PHOSPHORUS [3]: 11.9 mg/dL | POTASSIUM [3]: 6.14 MEQ/L | SODIUM [3]: 145.13 MEQ/L | TOTAL BILIRUBIN [3]: 0.13 mg/dL | TOTAL PROTEIN [3]: 5.6 G/DL
